# Reference: patent US5965088A, “Method for providing rapid disinfection of contact lenses” (priority 1997, dated 1999)
# Read-outs that look alike come from different tables or passages of the source.
# System: Candida albicans (ATCC 10231)
# Assay: Antimicrobial efficacy (stand-alone log reduction), C. albicans
# Assay type: cell-based
# Conditions: for log reduction at 4 ppm / log reduction at 4 µg/mL: Candida albicans; for log reduction at 4 µg/mL: 4.0 ppm alexidine in ReNu MPS; for Log Reduction C. albicans: PAPB 0.0
# Method: This Example illustrates the microbiocidal efficacy of solutions according to the present invention. The antimicrobial efficacy of each of various compositions for the chemical disinfection of contact lenses was evaluated. Microbial challenge inoculums were prepared using Pseudomonas aeruginosa (ATCC 9027), Staphylococcus aureus (ATCC 6538), Serratia marcescens (ATCC 13880), Candida albicans (ATCC 10231), and Fusarium solani (ATCC 36031). The test organisms were cultured on appropriate agar and the cultures were harvested using sterile DPBST (Dulbecco's Phosphate Buffered Saline plus 0.05% w/v polysorbate 80) or a suitable diluent and transferred to a suitable vessel. Spore suspensions were filtered through sterile glass wool to remove hyphal fragments. Serratia marcescens, as appropriate, was filtered (eg., through a 1.2 μ filter) to clarify the suspension. After harvesting, the suspension was centrifuged at no more than 5000× g for a maximum of 30 minutes at 20-25° C. The supernatant was poured off and resuspended in DPBST or other suitable diluent. The suspension was centrifuged a second time, and resuspended in DPBST or other suitable diluent. All challenge bacterial and fungal cell suspensions were adjusted with DPBST or other suitable diluent to 1×10^7 -10^8 cfu/mL. The appropriate cell concentration may be estimated by measuring the turbidity of the suspension, for example using a spectrophotometer at a preselected wavelength, for example 490 nm. One tube was prepared containing a minimum of 10 mL of test solution per challenge organism. Each tube of the solution to be tested was inoculated with a suspension of the test organism sufficient to provide a final count of 1.0×10^5 -10^6 cfu/mL, the volume of the inoculum not exceeding 1% of the sample volume. Dispersion of the inoculum was ensured by vortexing the sample for at least 15 seconds. The inoculated product was stored at 10-25° C. Aliquots in the amount of 1.0 mL were taken of the inoculated product for determination of viable counts after certain time periods of disinfection. The time points for the bacteria were 25, 50, 75, and 100% of the minimum disinfection time. Yeast and mold were tested at an additional timepoint of at least 400% of the minimum disinfection time. The suspension was mixed well by vortexing vigorously for at least 5 second. The 1.0 mL aliquots removed at the specified time intervals were subjected to a suitable series of decimal dilutions in validated neutralizing media. The suspensions were mixed vigorously and incubated for a suitable period of time to allow for neutralization of the microbial agent. The viable count of organisms was determined in appropriate dilutions by preparation of triplicate plates of trypticase soy (TSA) agar for bacteria and Sabouraud dextrose agar (SDA) for mold and yeast. The bacterial recovery plates were incubated at 30-35° C. for 2-4 days. The yeast was incubated at 20-30° C. for 2-4 days and mold recovery plates at 20-25° C. for 3-7 days. The average number of colony forming units was determined on countable plates. Countable plates refer to 30-300 cfu/plates for bacteria and yeast, and 8 to 80 cfu/plate for mold except when colonies are observed only for the 10^0 or 10^-1 dilution plates. The microbial reduction was then calculated at the specified time points. […] Following inoculation in a validated neutralizing broth and incubation for an appropriate period of time, the inoculum control must be between 1.0×10^5 -1.0×10^6 cfu/mL
# The solutions were evaluated based on the performance requirement referred to as the "Stand-Alone Procedure for Disinfecting Products" (hereafter the "stand-alone test") and is based on the Disinfection Efficacy Testing for contact lens care products under the Draft Premarket Notification (510(k)) Guidance Document For Contact Lens Care Products dated Apr. 1, 1996, prepared by the U.S. Food and Drug Administration, Division of Ophthalmic Devices. […]
smiles,measurement,setting,value
"CCCCC(CC)CNC(=N)NC(=N)NCCCCCCNC(=N)NC(=N)NCC(CC)CCCC.Cl.Cl (centres unmarked) [Alexidine.2HCl, 1,1 '-hexamethylenebis(5-(2-ethylhexyl)-biguanide) dihydrochloride]",Log Reduction,"4.0 ppm, Ex. 8, different batch aged 19 months at 25 °C, 15 min, dihydrochloride",< 1 log
same,log reduction at 4 ppm,"ATCC10231, 2.5 min, 4.0 ppm, aged 18 months, Exp. 1, 2.5 min, read-out: Log Reduction",0
same,log reduction at 4 ppm,"ATCC10231, 2.5 min, 4.0 ppm, aged 18 months, Exp. 2, 2.5 min, read-out: Log Reduction",0.1
same,log reduction at 4 ppm,"ATCC10231, 2.5 min, 4.0 ppm, aged 18 months, Exp. 3, 2.5 min, read-out: Log Reduction",0
same,log reduction at 4 ppm,"ATCC10231, 5 min, 4.0 ppm, aged 18 months, Exp. 1, 5.0 min, read-out: Log Reduction",0
same,log reduction at 4 ppm,"ATCC10231, 5 min, 4.0 ppm, aged 18 months, Exp. 2, 5.0 min, read-out: Log Reduction",0.1
same,log reduction at 4 ppm,"ATCC10231, 5 min, 4.0 ppm, aged 18 months, Exp. 3, 5.0 min, read-out: Log Reduction",0
same,log reduction at 4 ppm,"ATCC10231, 0.125 h, 4.0 ppm, aged 18 months, Exp. 1, 7.5 min, read-out: Log Reduction",0.6
same,log reduction at 4 ppm,"ATCC10231, 0.125 h, 4.0 ppm, aged 18 months, Exp. 2, 7.5 min, read-out: Log Reduction",0.5
same,log reduction at 4 ppm,"ATCC10231, 0.125 h, 4.0 ppm, aged 18 months, Exp. 3, 7.5 min, read-out: Log Reduction",0.4
same,log reduction at 4 ppm,"ATCC10231, 10 min, 4.0 ppm, aged 18 months, Exp. 1, 10.0 min, read-out: Log Reduction",0.7
same,log reduction at 4 ppm,"ATCC10231, 10 min, 4.0 ppm, aged 18 months, Exp. 2, 10.0 min, read-out: Log Reduction",0.6
same,log reduction at 4 ppm,"ATCC10231, 10 min, 4.0 ppm, aged 18 months, Exp. 3, 10.0 min, read-out: Log Reduction",0.4
same,log reduction at 4 ppm,"ATCC10231, 0.25 h, 4.0 ppm, Ex. 6, aged 19 months at 25 °C, 15 min",1.9
same,log reduction at 4 ppm,"ATCC10231, 0.25 h, 4.0 ppm, Ex. 7, different lot aged 18 months, 15 min, read-out: Log Reduction",1
same,log reduction at 4 ppm,"ATCC10231, 0.25 h, 4.0 ppm, Ex. 8, different batch aged 19 months at 25 °C, 15 min, read-out: Log Reduction",0.9
same,log reduction at 4 ppm,"ATCC10231, 0.5 h, 4.0 ppm, Ex. 6, aged 19 months at 25 °C, 30 min, read-out: Log Reduction",2.5
same,log reduction at 4 ppm,"ATCC10231, 0.5 h, 4.0 ppm, Ex. 7, different lot aged 18 months, 30 min, read-out: Log Reduction",1.7
same,log reduction at 4 ppm,"ATCC10231, 0.5 h, 4.0 ppm, Ex. 8, different batch aged 19 months at 25 °C, 30 min, read-out: Log Reduction",1.7
same,log reduction at 4 ppm,"ATCC10231, 40 min, 4.0 ppm, aged 18 months, Exp. 1, 40.0 min, read-out: Log Reduction",2.1
same,log reduction at 4 ppm,"ATCC10231, 40 min, 4.0 ppm, aged 18 months, Exp. 2, 40.0 min, read-out: Log Reduction",1
same,log reduction at 4 ppm,"ATCC10231, 40 min, 4.0 ppm, aged 18 months, Exp. 3, 40.0 min, read-out: Log Reduction",1
same,log reduction at 4 ppm,"ATCC10231, 0.75 h, 4.0 ppm, Ex. 6, aged 19 months at 25 °C, 45 min",2.7
same,log reduction at 4 ppm,"ATCC10231, 0.75 h, 4.0 ppm, Ex. 7, different lot aged 18 months, 45 min, read-out: Log Reduction",1.9
same,log reduction at 4 ppm,"ATCC10231, 0.75 h, 4.0 ppm, Ex. 8, different batch aged 19 months at 25 °C, 45 min",1.8
same,log reduction at 4 µg/mL,"ATCC10231, 1 h, 1 hr",2.9
same,log reduction at 4 ppm,"ATCC10231, 1 h, 4.0 ppm, Ex. 6, aged 19 months at 25 °C, 60 min, read-out: Log Reduction",2.8
same,log reduction at 4 ppm,"ATCC10231, 1 h, 4.0 ppm, Ex. 7, different lot aged 18 months, 60 min, read-out: Log Reduction",2.1
same,log reduction at 4 ppm,"ATCC10231, 1 h, 4.0 ppm, Ex. 8, different batch aged 19 months at 25 °C, 60 min, read-out: Log Reduction",1.9
same,log reduction at 4 µg/mL,"ATCC10231, 2 h, 2 hr",4.3
same,log reduction at 4 µg/mL,"ATCC10231, 3 h, 3 hr",> 4.7
same,log reduction at 4 µg/mL,"ATCC10231, 4 h, 4 hr",3.9
same,log reduction at 4 ppm,"ATCC10231, 4 h, 4.0 ppm, Ex. 6, aged 19 months at 25 °C, 4 h, read-out: Log Reduction",3.4
same,log reduction at 4 ppm,"ATCC10231, 4 h, 4.0 ppm, Ex. 7, different lot aged 18 months, 4 hrs",3.1
same,log reduction at 4 ppm,"ATCC10231, 4 h, 4.0 ppm, Ex. 8, different batch aged 19 months at 25 °C, 4 hrs, read-out: Log Reduction",2.6
same,log reduction at 4 µg/mL,"ATCC10231, 24 h, 24 hr",4.6
same,Log Reduction C. albicans,"alexidine 0.5 ppm, 5 min",0.3 log
same,Log Reduction C. albicans,"alexidine 0.5 ppm, 15 min",1.0 log
same,Log Reduction C. albicans,"alexidine 0.5 ppm, 30 min",-0.2 log
same,Log Reduction C. albicans,"alexidine 0.5 ppm, 60 min",-0.1 log
same,Log Reduction C. albicans,"alexidine 2.6 ppm, 5 min",0.4 log
same,Log Reduction C. albicans,"alexidine 2.6 ppm, 15 min",0.5 log
same,Log Reduction C. albicans,"alexidine 2.6 ppm, 30 min",0.5 log
same,Log Reduction C. albicans,"alexidine 2.6 ppm, 60 min",1.4 log
